Laboratory results published in the supplement of paper PMC3937590.

Columns and labels:
Test in all cases: -log10 GI50 (growth inhibition 50%) (-log10(M)); higher = more potent growth inhibition
[1] = system: BT474
How it was run: (§1)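 Dose-response data came from breast cancer cell lines exposed to each compound for 72 hours at nine doses in 1:5 serial dilution, in triplicate, and read by luminescence relative to a time-zero plate. A Gompertz curve fitted by nonlinear least squares gave GI50, the molar concentration for the set level of growth inhibition, reported as its negative logarithm to base 10. Where a value equals the top dose, it carries a < qualifier.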

[2] = system: HBL100
How it was run: as §1

[3] = system: HCC1428
How it was run: as §1

[4] = system: HCC1937
How it was run: as §1

[5] = system: HCC202
How it was run: as §1

[6] = system: MDAMB436
How it was run: as §1

[7] = system: MDAMB453
How it was run: as §1

[8] = system: MDAMB468
How it was run: as §1

[9] = system: S1
How it was run: as §1

[10] = system: SUM102PT
How it was run: as §1

[11] = system: SUM185PE
How it was run: as §1

[12] = system: SUM52PE
How it was run: as §1

[13] = system: T4
How it was run: as §1

[14] = system: UACC893
How it was run: as §1

[15] = system: ZR75B
How it was run: as §1

[16] = system: ZR7530
How it was run: as §1

[17] = system: 21MT1
How it was run: as §1

[18] = system: 21NT
How it was run: as §1

[19] = system: BT20
How it was run: as §1

[20] = system: T47D_KBluc
How it was run: as §1

Compound | -log10 GI50 [1] | -log10 GI50 [2] | -log10 GI50 [3] | -log10 GI50 [4] | -log10 GI50 [5] | -log10 GI50 [6] | -log10 GI50 [7] | -log10 GI50 [8] | -log10 GI50 [9] | -log10 GI50 [10] | -log10 GI50 [11] | -log10 GI50 [12] | -log10 GI50 [13] | -log10 GI50 [14] | -log10 GI50 [15] | -log10 GI50 [16] | -log10 GI50 [17] | -log10 GI50 [18] | -log10 GI50 [19] | -log10 GI50 [20]
CCn1cc(-c2ccnc3[nH]c(-c4cccc(CN(C)C)c4)cc23)c(-c2ccc(NC(=O)N(C)C)cc2)n1 | 5.2 | 7.15 | 5.69 | 5.73 | 6.03 | 7.19 | 5.54 | 7.89 | 6.36 | 5.52 | 5.95 | 6.86 | 6.63 | 5.06 | 5.85 | – | – | – | – | –
CCNCCCNC/C=C\CNCCCNCC | 4.24 | 2.94 | 3.74 | 5.24 | 4.75 | 3.43 | 4.26 | – | 5.46 | 5.98 | < 3.3 | 5.45 | 4.76 | 3.63 | 3.61 | < 2.3 | – | – | – | –
O=C(O)C1(C(=O)O)CCC1.[NH2-].[NH2-].[Pt+2] [Carboplatin] | 3.97 | 4.15 | 3.86 | 4.47 | 4.44 | 4.29 | 4.27 | 4.32 | 4.48 | – | 3.94 | 4.71 | 4.08 | 3.04 | 3.52 | 4.55 | – | – | – | –
O=c1[nH]cc(F)c(=O)[nH]1 [Fluorouracil] | 3.75 | 4.15 | 4.99 | 3.66 | 4.77 | 2.97 | 4.02 | 3.62 | 3.9 | – | 2.53 | 4.65 | – | 3.45 | 4.95 | – | – | – | – | –
C[C@@H](Oc1cc(-c2cnn(C3CCNCC3)c2)cnc1N)c1c(Cl)ccc(F)c1Cl | 5.11 | – | 5.13 | 5.25 | – | – | 5.59 | – | – | – | 5.33 | 6.28 | – | – | 5.64 | – | 5.23 | 5.18 | 5.42 | 5.31
COc1cccc2c1C(=O)c1c(O)c3c(c(O)c1C2=O)C[C@@](O)(C(=O)CO)C[C@@H]3O[C@H]1C[C@H](N)[C@H](O)[C@H](C)O1 [Doxorubicin] | 6.51 | 7.37 | 5.92 | 6.49 | 6.61 | 6.29 | 6.67 | 6.13 | 6.09 | 6.61 | 6.51 | 7.01 | 6.9 | 6.14 | 6.67 | 6.96 | – | – | – | –
CC/C(=C(\c1ccccc1)c1ccc(OCCN(C)C)cc1)c1ccccc1 [Tamoxifen] | 5.62 | 4.32 | 5.49 | < 3.78 | 4.55 | 4.51 | 4.47 | – | 5.84 | – | 5.05 | 4.28 | – | 4.72 | – | – | – | – | – | –
O=C1NC(=O)/C(=C/c2ccc3nccc(-c4ccncc4)c3c2)S1 | 6.8 | 5.42 | 6.28 | 6.09 | 7.31 | 6.09 | 6.52 | 6.03 | 7.04 | – | 7.13 | 6.82 | 7.31 | 7.24 | 6.51 | 6.82 | – | – | – | –
C[C@@H](Oc1cc(-n2cnc3ccc(CN4CCN(C)CC4)cc32)sc1C(N)=O)c1ccccc1C(F)(F)F | 5.07 | 8.7 | 5.33 | 7.5 | 8.99 | 7.86 | 8.02 | 8.41 | 7.95 | 5.38 | 5.71 | 8.2 | 7.88 | 8.15 | 7.06 | 5.21 | – | – | – | –
Cn1ncc(Cl)c1-c1cc(C(=O)N[C@H](CN)Cc2ccc(F)c(F)c2)oc1Cl | 7.16 | – | 4.94 | – | – | – | 7.2 | – | – | – | 6.28 | 6.3 | – | – | – | – | 5.35 | 5.35 | 5.25 | 6.48
COc1cccc2c1C(=O)c1c(O)c3c(c(O)c1C2=O)C[C@@](O)(C(=O)CO)C[C@@H]3O[C@H]1C[C@H](N)[C@@H](O)[C@H](C)O1 [Epirubicin] | 5.17 | 6.88 | 5.88 | 6.69 | 6.26 | 5.92 | 6.66 | 6.15 | 6.42 | – | 6.39 | 7.42 | – | 6.11 | 6.94 | – | – | – | – | –
CCC[C@H](N[C@H]1CCc2cc(F)cc(F)c2C1)C(=O)Nc1cn(C(C)(C)CNCC(C)(C)C)cn1 | 4.37 | – | 4.45 | 4.54 | – | – | 4.59 | – | – | – | 4.84 | 5.24 | – | – | < 4.18 | – | 4.38 | < 4.18 | 4.76 | < 4.18
CC(=O)Nc1cccc(-n2c(=O)n(C3CC3)c(=O)c3c(Nc4ccc(I)cc4F)n(C)c(=O)c(C)c32)c1 | < 4.78 | < 4.78 | < 4.78 | < 4.78 | 6.28 | 4.81 | 6.64 | 4.84 | 8.31 | – | 4.9 | 6.92 | 9 | 5.77 | < 4.78 | < 4.78 | – | – | – | –
N.N.[Cl][Pt][Cl] [Cisplatin] | 4.42 | 5.05 | 4.33 | 5.48 | 6.06 | 5 | 5.16 | 5.27 | 5.45 | < 3.3 | 4.03 | 5.78 | 5.02 | 3.76 | 4.06 | 5.58 | – | – | – | –
C=CCNC1=C2C[C@@H](C)C[C@H](OC)[C@H](O)[C@@H](C)/C=C(\C)[C@H](OC(N)=O)[C@@H](OC)/C=C\C=C(/C)C(=O)NC(=CC1=O)C2=O [17-AAG] | 5.84 | 5.97 | 8.39 | 6.88 | 8.27 | 5.96 | 7.36 | 5.64 | 6.89 | – | 7.47 | 7.79 | – | 7.77 | 7.27 | – | – | – | – | –
CCC1=C[C@@H]2CN(C1)Cc1c([nH]c3ccccc13)[C@@](C(=O)OC)(c1cc3c(cc1OC)N(C)[C@H]1[C@@](O)(C(=O)OC)[C@H](OC(C)=O)[C@]4(CC)C=CCN5CC[C@]31[C@@H]54)C2 [Vinorelbine] | 7.32 | 8.02 | 5.66 | 6.65 | 7.89 | 7.57 | 8.8 | 8.01 | 8.34 | – | 8.08 | 7.97 | – | 7.96 | 8.05 | – | – | – | – | –
COc1cc2ncnc(Nc3ccc(F)c(Cl)c3)c2cc1OCCCN1CCOCC1 [Gefitinib] | 6.14 | 4.94 | 4.97 | 5.08 | 6.45 | < 4.48 | 5.13 | 4.72 | 6.57 | 5.73 | 5.11 | 5.1 | – | 5.94 | 4.67 | – | – | – | – | –
CC(C)Oc1ccc(C(=O)N[C@H](CNC(=O)CN(C)C)Cc2ccc(-c3cn4cccc([C@H](C)O)c4n3)cc2)cc1Cl | 5.46 | 7.33 | 5.99 | 7.36 | 7.76 | 7.92 | – | 7.61 | 6.37 | 5.18 | 5.43 | 7.65 | 7.2 | 7.7 | 7.18 | 7.68 | – | – | – | –
CCc1c2c(nc3ccc(OC(=O)N4CCC(N5CCCCC5)CC4)cc13)-c1cc3c(c(=O)n1C2)COC(=O)[C@]3(O)CC [CPT-11] | 4.69 | 5.5 | 4.64 | 5.14 | 4.32 | 5.18 | 5.19 | 4.49 | < 4.13 | – | 4.99 | 5.87 | 5.23 | 4.22 | 5.82 | < 4.13 | – | – | – | –
CC(=O)NCC(=O)N1[C@@H]2CC[C@H]1c1ccc(Nc3ncc(C(F)(F)F)c(NC4CCC4)n3)cc12 | 5.22 | – | 5.37 | 5.2 | – | – | 5.62 | – | – | – | 6.63 | 7.57 | – | – | 5.94 | – | 5.78 | 5.54 | 5.9 | 5.4
CC(C)[C@H](CO)Nc1nc(Nc2cccc(Cl)c2)c2ncn(C(C)C)c2n1 [Purvalanol A] | < 3.78 | 4.6 | 4.18 | 4.37 | 4.02 | – | < 3.78 | – | – | – | 4.69 | 4.79 | – | – | < 3.78 | – | – | – | 4.57 | < 3.78
CC(=O)O[C@@]12CO[C@@H]1C[C@H](O)[C@@]1(C)C(=O)[C@H](O)C3=C(C)[C@@H](OC(=O)[C@H](O)[C@@H](NC(=O)OC(C)(C)C)c4ccccc4)C[C@@](O)([C@@H](OC(=O)c4ccccc4)[C@H]21)C3(C)C [Docetaxel] | 8.2 | 8.75 | 7.77 | – | 8.63 | 8.07 | 8.32 | 8.64 | 8.33 | – | 6.4 | 8.67 | 8.77 | 7.77 | 8.03 | 8.4 | – | – | – | 7.93
CC(=O)O[C@H]1C(=O)[C@@]2(C)[C@H]([C@H](OC(=O)c3ccccc3)[C@]3(O)C[C@H](OC(=O)[C@H](O)[C@@H](NC(=O)c4ccccc4)c4ccccc4)C(C)=C1C3(C)C)[C@]1(OC(C)=O)CO[C@@H]1C[C@@H]2O [Paclitaxel] | 7.99 | 8.35 | 7.58 | 7.81 | 8.1 | 7.65 | 7.99 | 8.06 | 7.84 | – | 6.64 | 8.2 | 8.04 | 7.93 | 7.38 | 7.66 | – | – | – | 7.84
CO[C@H]1C[C@@H]2CC[C@@H](C)[C@@](O)(O2)C(=O)C(=O)N2CCCC[C@H]2C(=O)O[C@H]([C@H](C)C[C@@H]2CC[C@@H](O)[C@H](OC)C2)CC(=O)[C@H](C)/C=C(\C)[C@@H](O)[C@@H](OC)C(=O)[C@H](C)C[C@H](C)/C=C/C=C/C=C/1C [Rapamycin] | 7.62 | 4.24 | 7.29 | 5.91 | 8.24 | 3.85 | 7.31 | 4.75 | – | – | 6.04 | 8.52 | – | < 3.78 | – | – | – | – | 7.17 | 5.65
Cc1ccc(C(=O)N(CCCN)[C@@H](c2nc3cc(Cl)ccc3c(=O)n2Cc2ccccc2)C(C)C)cc1 [Ispinesib] | 7.29 | 7.52 | 5.37 | 6.56 | 8.12 | – | 7.37 | – | – | – | 6.96 | 7.54 | – | – | 6.89 | – | – | – | 7.77 | 6.79
Nc1ccn([C@@H]2O[C@H](CO)[C@@H](O)C2(F)F)c(=O)n1 [Gemcitabine] | 4.88 | 7.64 | 3.58 | 5.97 | 4.82 | 7.49 | – | 7.01 | 7.04 | – | 6.44 | – | – | 3.54 | 7.34 | – | – | – | – | –
COC1=C2C[C@@H](C)C[C@H](OC)[C@H](O)[C@@H](C)/C=C(\C)[C@H](OC(N)=O)[C@@H](OC)/C=C\C=C(/C)C(=O)NC(=CC1=O)C2=O [Geldanamycin] | 7.84 | 7.6 | 7.55 | 7.49 | 8.4 | 7.15 | 7.69 | 7.74 | 8.82 | 8.48 | 7.71 | 7.93 | 8.22 | 8.14 | 7.05 | 8.15 | – | – | – | –
